Measurements as given in PMC7182988 (Saudi Journal of Biological Sciences, 2020).
“Also recorded” adds a separate entry of the source. Read-outs that look alike come from different tables or passages of the source.

Tests used:
human recombinant COX-1 = human recombinant COX-1 (Homo sapiens, UniProt P23219); test: COX-1; assay type: biochemical; conditions: for COX-1% (percentage of inhibition of COX-1): at 40 μg/mL; for Selectivity IC50 COX-1/IC50 COX-2: defined as IC50 COX-1/IC50 COX-2; for inhibition at 40 µg/mL: read-out: COX-1% (percentage of inhibition of COX-1)
Sequence of human recombinant COX-1 (P23219 24-599): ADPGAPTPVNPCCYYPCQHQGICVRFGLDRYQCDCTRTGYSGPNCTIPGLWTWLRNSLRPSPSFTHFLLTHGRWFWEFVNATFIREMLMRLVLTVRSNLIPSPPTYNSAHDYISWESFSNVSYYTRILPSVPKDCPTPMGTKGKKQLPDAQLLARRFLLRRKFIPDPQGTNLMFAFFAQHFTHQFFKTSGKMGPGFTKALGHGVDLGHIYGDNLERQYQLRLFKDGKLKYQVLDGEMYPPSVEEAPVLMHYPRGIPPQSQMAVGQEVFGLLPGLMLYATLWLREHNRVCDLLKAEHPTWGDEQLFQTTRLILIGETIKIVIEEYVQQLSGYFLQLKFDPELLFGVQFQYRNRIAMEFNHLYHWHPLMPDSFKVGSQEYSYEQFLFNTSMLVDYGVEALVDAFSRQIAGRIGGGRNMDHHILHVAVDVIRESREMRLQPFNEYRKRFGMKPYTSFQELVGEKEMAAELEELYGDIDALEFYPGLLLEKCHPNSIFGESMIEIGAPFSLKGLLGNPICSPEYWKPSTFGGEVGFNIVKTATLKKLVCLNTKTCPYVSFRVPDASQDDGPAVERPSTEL

human recombinant COX-2 = target: T1, human recombinant COX-2 (Homo sapiens, UniProt P35354); test: COX-2; assay type: biochemical; conditions: for COX-2% (percentage of inhibition of COX-2): at 40 μg/mL; for inhibition at 40 µg/mL: read-out: COX-2% (percentage of inhibition of COX-2)
T1 sequence (P35354 18-604): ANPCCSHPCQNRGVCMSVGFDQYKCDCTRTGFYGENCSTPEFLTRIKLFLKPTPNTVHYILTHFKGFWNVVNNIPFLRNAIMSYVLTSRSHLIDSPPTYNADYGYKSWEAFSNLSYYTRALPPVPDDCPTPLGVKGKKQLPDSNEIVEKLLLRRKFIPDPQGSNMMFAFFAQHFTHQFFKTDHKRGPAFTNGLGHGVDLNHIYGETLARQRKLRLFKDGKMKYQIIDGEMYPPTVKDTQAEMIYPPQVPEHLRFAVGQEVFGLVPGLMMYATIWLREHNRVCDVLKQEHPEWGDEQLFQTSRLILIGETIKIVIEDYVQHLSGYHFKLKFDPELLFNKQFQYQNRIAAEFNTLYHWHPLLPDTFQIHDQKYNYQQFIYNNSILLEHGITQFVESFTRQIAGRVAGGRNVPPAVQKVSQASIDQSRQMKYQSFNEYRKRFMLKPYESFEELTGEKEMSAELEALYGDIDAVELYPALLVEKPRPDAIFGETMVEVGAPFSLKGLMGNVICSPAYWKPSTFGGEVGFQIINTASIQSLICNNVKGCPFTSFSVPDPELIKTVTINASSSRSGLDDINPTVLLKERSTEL

[1] = system: LPS-induced IL-6 in WI-38 fibroblast cells; test: ELISA assay for IL-6 release in LPS-stimulated cells; assay type: cell-based; conditions: for IL-6 (pg/ml)% (percentage of inhibition of IL-6): WI-38 cells, test compounds 10 µM, LPS 0.5 µg/mL, LPS alone = 100; for inhibition of IL-6 release (in words): LPS-stimulated WI-38 fibroblast cells
[2] = system: LPS-induced TNF-α in WI-38 fibroblast cells; test: ELISA assay for TNF-α release in LPS-stimulated cells; assay type: cell-based; conditions: for TNF-α (pg/ml)% (percentage of inhibition of TNF-α): WI-38 cells, test compounds 10 µM, LPS 0.5 µg/mL, LPS alone = 100; for inhibition of TNF-α release (in words): LPS-stimulated WI-38 fibroblast cells
[3] = read-out: COX-1 IC50 (μM ± SD), mean ± SD of triplicate experiments
[4] = read-out: COX-2 IC50 (μM ± SD), mean ± SD of triplicate experiments

SMILES	Selectivity IC50 COX-1/IC50 COX-2 (human recombinant COX-1) [%]	IC50 (human recombinant COX-1) [µM]	inhibition at 40 µg/mL (human recombinant COX-1) [%]	IC50 (human recombinant COX-2) [µM]	inhibition at 40 µg/mL (human recombinant COX-2) [%]	other results
CC(=O)O[C@@H]1CC[C@@]2(C)[C@@H](CC[C@]3(C)[C@@H]2C(=O)C=C2[C@@H]4[C@@H](C)[C@H](C)CC[C@]4(C)CC[C@]23C)[C@@]1(C)C(=O)O [Acetyl-keto boswellic acid, reference compound]	10					COX-1% (percentage of inhibition of COX-1) (human recombinant COX-1): 71.42%; IC50 (human recombinant COX-1; [3]): 7.84 ± 0.13 µM; COX-2% (percentage of inhibition of COX-2) (human recombinant COX-2): 19.87%; IC50 (human recombinant COX-2; [4]): 82.52 ± 0.62 µM; IL-6 (pg/ml)% (percentage of inhibition of IL-6) [1]: 7.31%; TNF-α (pg/ml)% (percentage of inhibition of TNF-α) [2]: 18.76%
CC(=O)O[C@@H]1CC[C@@]2(C)[C@@H](CC[C@]3(C)[C@@H]2CC=C2[C@@H]4CC(C)(C)CC[C@]4(C)CC[C@]23C)[C@@]1(C)C(=O)O [Acetyl-α-boswellic acid, reference compound]	10					COX-1% (percentage of inhibition of COX-1) (human recombinant COX-1): 69.81%; IC50 (human recombinant COX-1; [3]): 10.1 ± 0.17 µM; COX-2% (percentage of inhibition of COX-2) (human recombinant COX-2): 7.98%; IC50 (human recombinant COX-2; [4]): > 100 µM; IL-6 (pg/ml)% (percentage of inhibition of IL-6) [1]: 15.73%; TNF-α (pg/ml)% (percentage of inhibition of TNF-α) [2]: 14.87%
CC(=O)O[C@@H]1CC[C@@]2(C)[C@@H](CC[C@]3(C)[C@@H]2CC=C2[C@@H]4[C@@H](C)[C@H](C)CC[C@]4(C)CC[C@]23C)[C@@]1(C)C(=O)O [Acetyl-β-boswellic acid, reference compound]	11					COX-1% (percentage of inhibition of COX-1) (human recombinant COX-1): 75.73%; IC50 (human recombinant COX-1; [3]): 8.16 ± 0.1 µM; COX-2% (percentage of inhibition of COX-2) (human recombinant COX-2): 14.87%; IC50 (human recombinant COX-2; [4]): 72.52 ± 0.51 µM; IL-6 (pg/ml)% (percentage of inhibition of IL-6) [1]: 11.42%; TNF-α (pg/ml)% (percentage of inhibition of TNF-α) [2]: 19.87%
Cc1ccc(-c2cc(C(F)(F)F)nn2-c2ccc(S(N)(=O)=O)cc2)cc1 [Celecoxib, reference compound]						IL-6 (pg/ml)% (percentage of inhibition of IL-6) ([1]; 10 µM): 24.77%
O=C(c1ccccc1)C1C(c2cc3ccccc3o2)C2CSCN2[C@@]12C(=O)Nc1ccc(Cl)cc12 (stereo partly drawn) [Compound 5a, (3S)-7'-(Benzofuran-2-yl)-6'-benzoyl-5-chloro-1',6',7',7a'-tetrahydro-3'H-spiro[indoline-3,5'-pyrrolo[1,2-c]thiazol]-2-one]	23	20.4 ± 0.55	57.4	88.1 ± 1.78	11.2	
O=C(c1ccc(F)cc1)C1C(c2cc3ccccc3o2)C2CSCN2[C@@]12C(=O)Nc1ccc(Cl)cc12 (stereo partly drawn) [Compound 5c, (3S)-7'-(Benzofuran-2-yl)-5-chloro-6'-(4-fluorobenzoyl)-1',6',7',7a'-tetrahydro-3'H-spiro[indoline-3,5'-pyrrolo[1,2-c]thiazol]-2-one]	49	37 ± 1.54	40.8	76.2 ± 1.46	8.33	
O=C(c1ccc(F)cc1)C1C(c2cc3ccccc3o2)C2C3CCCCC3CN2[C@@]12C(=O)Nc1ccc(Cl)cc12 (stereo partly drawn) [Compound 5d, (3S)-1'-(benzofuran-2-yl)-5-chloro-2'-(4-fluorobenzoyl)-1',2',5',5a',6',7',8',9',9a',9b'-decahydrospiro-[indoline-3,3'-pyrrolo[2,1-a]isoindol]-2-one]			19.8		7.77	inhibition of IL-6 release (in words) [1]: markedly inhibited; also recorded: most effective; also recorded: high potency; inhibition of TNF-α release (in words) [2]: markedly inhibited; also recorded: most effective; also recorded: high potency
O=C(c1ccc(F)cc1)C1C(c2cc3ccccc3o2)C2C3CCCCC3CN2[C@@]12C(=O)Nc1ccc(Br)cc12 (stereo partly drawn) [Compound 5e, (3S)-1'-(Benzofuran-2-yl)-5-bromo-2'-(4-fluorobenzoyl)-1',2',5',5a',6',7',8',9',9a',9b'-decahydrospiro-[indoline-3,3'-pyrrolo[2,1-a]isoindol]-2-one]			9.43		1.8	inhibition of IL-6 release (in words) [1]: markedly inhibited; also recorded: most effective; also recorded: high potency; inhibition of TNF-α release (in words) [2]: markedly inhibited; also recorded: most effective; also recorded: high potency
O=C(c1ccc(Br)cc1)C1C(c2cc3ccccc3o2)C2C3CCCCC3CN2[C@@]12C(=O)Nc1ccc(Cl)cc12 (stereo partly drawn) [Compound 5f, (3S)-1'-(Benzofuran-2-yl)-2'-(4-bromobenzoyl)-5-chloro-1',2',5',5a',6',7',8',9',9a',9b'-decahydrospiro-[indoline-3,3'-pyrrolo[2,1-a]isoindol]-2-one]			32.1		5.92	inhibition of IL-6 release (in words) [1]: markedly inhibited; also recorded: most effective; also recorded: high potency; inhibition of TNF-α release (in words) [2]: markedly inhibited; also recorded: most effective; also recorded: high potency
O=C(c1ccc(Br)cc1)C1C(c2cc3ccccc3o2)C2C3CCCCC3CN2[C@@]12C(=O)Nc1ccc(Br)cc12 (stereo partly drawn) [Compound 5g, (3S)-1'-(Benzofuran-2-yl)-5-bromo-2'-(4-bromobenzoyl)-1',2',5',5a',6',7',8',9',9a',9b'-decahydrospiro-[indoline-3,3'-pyrrolo[2,1-a]isoindol]-2-one]			19.8		2.76	inhibition of IL-6 release (in words) [1]: markedly inhibited; also recorded: most effective; also recorded: high potency; inhibition of TNF-α release (in words) [2]: markedly inhibited; also recorded: most effective; also recorded: high potency
O=C(c1ccc(Br)cc1)C1C(c2cc3ccccc3o2)C2CSCN2[C@@]12C(=O)Nc1ccc(Br)cc12 (stereo partly drawn) [Compound 5h, (3S)-7'-(Benzofuran-2-yl)-5-bromo-6'-(4-bromobenzoyl)-1',6',7',7a'-tetrahydro-3'H-spiro[indoline-3,5'-pyrrolo[1,2-c]thiazol]-2-one]	42	35.7 ± 0.51	41.7	84.7 ± 1.16	9.8	
O=C(c1ccc(Br)cc1)C1C(c2cc3ccccc3o2)C2CSCN2[C@@]12C(=O)Nc1ccc(Cl)cc12 (stereo partly drawn) [Compound 5i, (3S)-7'-(Benzofuran-2-yl)-6'-(4-bromobenzoyl)-5-chloro-1',6',7',7a'-tetrahydro-3'H-spiro[indoline-3,5'-pyrrolo[1,2-c]thiazol]-2-one]	41	29.55 ± 0.19	44.5	71.2 ± 1.29	17.9	
O=C(c1ccc(C(F)(F)F)cc1)C1C(c2cc3ccccc3o2)C2C3CCCCC3CN2[C@@]12C(=O)Nc1ccc(Br)cc12 (stereo partly drawn) [Compound 5k, (3S)-1'-(Benzofuran-2-yl)-5-bromo-2'-(4-(trifluoromethyl)benzoyl)-1',2',5',5a',6',7',8',9',9a',9b'-decahydro-spiro[indoline-3,3'-pyrrolo[2,1-a]isoindol]-2-one]			12.3		4.45	inhibition of IL-6 release (in words) [1]: markedly inhibited; also recorded: most effective; also recorded: high potency; inhibition of TNF-α release (in words) [2]: markedly inhibited; also recorded: most effective; also recorded: high potency
O=C(c1ccc(C(F)(F)F)cc1)C1C(c2cc3ccccc3o2)C2CSCN2[C@@]12C(=O)Nc1ccc(Cl)cc12 (stereo partly drawn) [Compound 5l, (3S)-7'-(Benzofuran-2-yl)-5-chloro-6'-(4-(trifluoromethyl)benzoyl)-1',6',7',7a'-tetrahydro-3'H-spiro-[indoline-3,5'-pyrrolo[1,2-c]thiazol]-2-one]		31.25 ± 0.24	47.7	58.8 ± 1.58	19.8	
O=C(c1ccc(Cl)cc1)C1C(c2cc3ccccc3o2)C2CSCN2[C@@]12C(=O)Nc1ccc(Cl)cc12 (stereo partly drawn) [Compound 5p, (3S)-7'-(Benzofuran-2-yl)-5-chloro-6'-(4-chlorobenzoyl)-1',6',7',7a'-tetrahydro-3'H-spiro[indoline-3,5'-pyrrolo[1,2-c]thiazol]-2-one]	45	38.2 ± 0.96	52.8	85.7 ± 1.51	9.98	
COc1ccc2c(c1)c(CC(=O)O)c(C)n2C(=O)c1ccc(Cl)cc1 [Indomethacin, reference compound]			87.3			
C[C@H]1[C@H](C)CC[C@]2(C)CC[C@]3(C)C(=CC[C@@H]4[C@@]5(C)CC[C@@H](O)[C@](C)(C(=O)O)[C@@H]5CC[C@]43C)[C@H]12 [β-Boswellic acid, reference compound]	18	18.1 ± 0.42	64.8	> 100	7.66	
